Assay results taken from US5190741A, “Agents for diagnosing and treating melanomas, aromatic halogenated derivatives usable as such agents and their preparation” (Institut National de la Sante et de la Recherche Medicale …, priority 1989, dated 1993).
Where two headings read alike, the source gives them in different places.

Tests used:
[1] = LD50 determination, i.v. (Karber and Behrens); conditions: mouse, in vivo, iv
Source text: (§1) The determination of the LD50 is made in the mouse after i.v. injection of the molecules according to the methodology described by Karber and Behrens.
(§2) 6 weeks old OF 1 male mice

[2] = system: 6 weeks old OF 1 male mice; assay: LD50 determination, i.v. (Karber and Behrens); conditions: mouse, in vivo, iv
Source text: as §1, §2

B16 murine melanoma [3] = assay: Autoradiograms, C57 BL6 mice bearing B16; format: in vivo, mouse
Protocol: (§3) The autoradiograms are carried out in mice bearing grafted melanomas:
a. C57 BL6 bearing the B16 murine melanoma.
(§4) The animals bearing grafted tumors receive the labelled compounds in the form of the hydrochloride in saline solution (3.7 to 5×10^5 Bq/animal) in a caudal vein. At different time intervals after the administration of the compounds (from 15 minutes to 24 hours) the mice are anesthetized with ether and plunged into liquid nitrogen.
(§5) 30 μm sections, parallel to a sagittal plane, are prepared in a freezing microtome (TS 260, SLEE) according to the protocol described by Ullberg.

[4] = system: Beu melanic human melanoma; assay: Autoradiograms, nu/nu SSCUP nude mice bearing Beu; format: in vivo
Protocol: as §3
b. nu/nu SSCUP nudes bearing heterotransplants of melanic (Beu) or amelanic (Dau) human melanomas).
as §4, §5

[5] = Tissue distribution in C57 BL6 mice bearing B16; format: in vivo, mouse; conditions: mouse, iv, 3 umol/animal
Protocol: (§6) The study of the tissue distribution of the ^125 I labelled compounds was performed in mice bearing grafted melanomas (cf. autoradiograms above). […] The animals are sacrificed at different time intervals of 1 to 24 hours after the injection. The blood is collected and the principal organs are excised. Aliquots are weighed and the radioactivity of the samples is measured in a […] 1191 counter (analytic tracer). The counting yield for iodine 125 is 60%. The results are expressed: as a percentage of the injected dose bound per g of tissue (% ID/g); in the form of the ratios [formula] This ratio reflects more precisely the selectivity of a molecule for an organ (tables 2, 4, 6, 8, 10 and 12).

B16 murine melanoma [6] = assay: Tissue distribution in C57 BL6 mice bearing B16; format: in vivo, mouse
Protocol: as §6

B16 melanoma = assay: Scintillation imaging, C57 BL6 mice bearing B16; format: in vivo, mouse; conditions: 3 to 17 h after injection
Source text: (§7) The mice bearing grafted tumors are anesthetized by the i.p. injection of sodium pentobarbital 1/5 and immobilized under a scintillation camera (Gammatome II, CGR) equipped with a pinhole 3-360 collimator, sensitivity 3.2 10^-4.
C57 BL6 bearing B16 melanomas at different stages of development.
(§8) The scanning observations have also been carried out after the injection of B into the following mice:
C57 BL6 bearing the B16 melanoma

[7] = system: Beu melanic human melanoma; assay: Scintillation imaging, nu/nu SSCUP nude mice bearing Beu; format: in vivo; conditions: 3 to 17 h after injection
Source text: as §7
nu/nu SSCUP nudes bearing human melanomas Beu and Dau.
as §8
nu/nu SSCUP nudes bearing the Beu heterotransplant.

[8] = kidney, read-out: kidney % ID/g
[9] = muscle, read-out: muscle % ID/g
[10] = plasma, read-out: plasma % ID/g

For `CCNCCNC(=O)c1ccc(I)cc1` [Derivative B, N-(2-ethylaminoethyl) 4-iodo benzamide], the LD50 [1] was 175 mg/kg, the “LD 0” value [2] was 150 mg/kg and the “LD 100” value [2] was 200 mg/kg. The “darkening of the film at the tumor” value (B16 murine melanoma [3]; 1 h after injection) was “qualitatively as great as after the injection of A”, the “tumoral radioactive concentration (autoradiogram)” value (B16 murine melanoma [3]; 4 h and particularly 6 h, compared with A) was “more intense tumoral radioactive concentration” and the “tumor visibility on autoradiogram” value (B16 murine melanoma [3]; 24 h after i.v.) was “still visible”. The “radioactivity remaining in the organism” value (B16 murine melanoma [3]; 24 h after injection) was “no radioactivity remains in the organism”, the “darkening along the circumference of the tumor” value ([4]; 6 h after injection) was “more pronounced darkening along the circumference of the tumor” and the “time up to which tumor is visible on autoradiogram” value ([4]; after injection) was “up to 6 h”. For the same compound, the tissue uptake at 1 h ([5]; blood, read-out: blood % ID/g) was 1.31 %ID/g, the tissue uptake at 2 h ([5]; blood, read-out: blood % ID/g) was 0.67 %ID/g and the tissue uptake at 4 h ([5]; blood, read-out: blood % ID/g) was 0.27 %ID/g. The tissue uptake at 6 h ([5]; blood, read-out: blood % ID/g) was 0.14 %ID/g, the tissue uptake at 24 h ([5]; blood, read-out: blood % ID/g) was 0.03 %ID/g and the tissue uptake at 1 h ([5]; brain, read-out: brain % ID/g) was 3.26 %ID/g. It also gave a tissue uptake at 2 h ([5]; brain, read-out: brain % ID/g) of 2.09 %ID/g, a tissue uptake at 4 h ([5]; brain, read-out: brain % ID/g) of 1.17 %ID/g and a tissue uptake at 6 h ([5]; brain, read-out: brain % ID/g) of 0.5 %ID/g. The tissue uptake at 24 h ([5]; brain, read-out: brain % ID/g) was 0.01 %ID/g, the tissue uptake at 1 h ([5]; eye, read-out: eye % ID/g) was 0.45 %ID/g and the tissue uptake at 2 h ([5]; eye, read-out: eye % ID/g) was 0.43 %ID/g. For the same compound, the tissue uptake at 4 h ([5]; eye, read-out: eye % ID/g) was 0.42 %ID/g, the tissue uptake at 6 h ([5]; eye, read-out: eye % ID/g) was 0.38 %ID/g and the tissue uptake at 24 h ([5]; eye, read-out: eye % ID/g) was 0.24 %ID/g. For the same compound, the tissue uptake at 1 h [5, 8] was 14.4 %ID/g, the tissue uptake at 2 h [5, 8] was 8.64 %ID/g and the tissue uptake at 4 h [5, 8] was 4.42 %ID/g. It also gave a tissue uptake at 6 h [5, 8] of 1.86 %ID/g, a tissue uptake at 24 h [5, 8] of 0.16 %ID/g and a tissue uptake at 1 h ([5]; liver, read-out: liver % ID/g) of 6.96 %ID/g. The tissue uptake at 2 h ([5]; liver, read-out: liver % ID/g) was 3.72 %ID/g, the tissue uptake at 4 h ([5]; liver, read-out: liver % ID/g) was 2.05 %ID/g and the tissue uptake at 6 h ([5]; liver, read-out: liver % ID/g) was 0.96 %ID/g. The tissue uptake at 24 h ([5]; liver, read-out: liver % ID/g) was 0.22 %ID/g, the tissue uptake at 1 h ([5]; lung, read-out: lungs % ID/g) was 14.4 %ID/g and the tissue uptake at 2 h ([5]; lung, read-out: lungs % ID/g) was 8 %ID/g. It also gave a tissue uptake at 4 h ([5]; lung, read-out: lungs % ID/g) of 4.49 %ID/g, a tissue uptake at 6 h ([5]; lung, read-out: lungs % ID/g) of 2.1 %ID/g and a tissue uptake at 24 h ([5]; lung, read-out: lungs % ID/g) of 0.05 %ID/g. It also gave a tissue uptake at 1 h [5, 9] of 2.55 %ID/g, a tissue uptake at 2 h [5, 9] of 1.33 %ID/g and a tissue uptake at 4 h [5, 9] of 0.67 %ID/g. It also gave a tissue uptake at 6 h [5, 9] of 0.2 %ID/g, a tissue uptake at 24 h [5, 9] of 0.02 %ID/g and a tissue uptake at 1 h [5, 10] of 0.73 %ID/g. The tissue uptake at 2 h [5, 10] was 0.4 %ID/g, the tissue uptake at 4 h [5, 10] was 0.21 %ID/g and the tissue uptake at 6 h [5, 10] was 0.13 %ID/g. For the same compound, the tissue uptake at 24 h [5, 10] was 0.02 %ID/g, the tissue uptake at 1 h ([5]; tumor, read-out: tumor % ID/g) was 6.03 %ID/g and the tissue uptake at 2 h ([5]; tumor, read-out: tumor % ID/g) was 5.73 %ID/g. The tissue uptake at 4 h ([5]; tumor, read-out: tumor % ID/g) was 4.36 %ID/g, the tissue uptake at 6 h ([5]; tumor, read-out: tumor % ID/g) was 4.69 %ID/g and the tissue uptake at 24 h ([5]; tumor, read-out: tumor % ID/g) was 0.49 %ID/g. For the same compound, the “intratumoral concentrations and ratios compared with A” value (B16 murine melanoma [6]; 4 to 8 h, melanic melanomas, preliminary) was “markedly higher than those observed with A”, the brain/blood ratio (B16 murine melanoma [6]; 1 h) was 2,48 and the eye/blood ratio (B16 murine melanoma [6]; 1 h) was 9,70. The kidney/blood ratio (B16 murine melanoma [6]; 1 h) was 10,92, the liver/blood ratio (B16 murine melanoma [6]; 1 h) was 5,32 and the lungs/blood ratio (B16 murine melanoma [6]; 1 h) was 11,00. The muscle/blood ratio (B16 murine melanoma [6]; 1 h) was 1,95, the plasma/blood ratio (B16 murine melanoma [6]; 1 h) was 0,56 and the tumor/blood ratio (B16 murine melanoma [6]; 1 h) was 4,70. The brain/blood ratio (B16 murine melanoma [6]; 2 h) was 3,11, the eye/blood ratio (B16 murine melanoma [6]; 2 h) was 17,50 and the kidney/blood ratio (B16 murine melanoma [6]; 2 h) was 12,82. The liver/blood ratio (B16 murine melanoma [6]; 2 h) was 5,55, the lungs/blood ratio (B16 murine melanoma [6]; 2 h) was 11,94 and the muscle/blood ratio (B16 murine melanoma [6]; 2 h) was 1,96. The plasma/blood ratio (B16 murine melanoma [6]; 2 h) was 0,60, the tumor/blood ratio (B16 murine melanoma [6]; 2 h) was 8,51 and the brain/blood ratio (B16 murine melanoma [6]; 4 h) was 4,33. The eye/blood ratio (B16 murine melanoma [6]; 4 h) was 39,70, the kidney/blood ratio (B16 murine melanoma [6]; 4 h) was 16,38 and the liver/blood ratio (B16 murine melanoma [6]; 4 h) was 7,58. The lungs/blood ratio (B16 murine melanoma [6]; 4 h) was 16,64, the muscle/blood ratio (B16 murine melanoma [6]; 4 h) was 2,49 and the plasma/blood ratio (B16 murine melanoma [6]; 4 h) was 0,79. For the same compound, the tumor/blood ratio (B16 murine melanoma [6]; 4 h) was 16,17, the brain/blood ratio (B16 murine melanoma [6]; 6 h) was 3,51 and the eye/blood ratio (B16 murine melanoma [6]; 6 h) was 73. For the same compound, the kidney/blood ratio (B16 murine melanoma [6]; 6 h) was 13,04, the liver/blood ratio (B16 murine melanoma [6]; 6 h) was 6,80 and the lungs/blood ratio (B16 murine melanoma [6]; 6 h) was 14,66. For the same compound, the muscle/blood ratio (B16 murine melanoma [6]; 6 h) was 1,47, the plasma/blood ratio (B16 murine melanoma [6]; 6 h) was 0,90 and the tumor/blood ratio (B16 murine melanoma [6]; 6 h) was 36. For the same compound, the “contrast index of melanic tumors vs neighbouring muscles or organs, compared with A” value (B16 murine melanoma [6]; 6 hours) was “the majority of these indices are higher for B than for A”, the brain/blood ratio (B16 murine melanoma [6]; 24 h) was 0,46 and the eye/blood ratio (B16 murine melanoma [6]; 24 h) was 200. For the same compound, the kidney/blood ratio (B16 murine melanoma [6]; 24 h) was 5,24, the liver/blood ratio (B16 murine melanoma [6]; 24 h) was 7,49 and the lungs/blood ratio (B16 murine melanoma [6]; 24 h) was 1,74. For the same compound, the muscle/blood ratio (B16 murine melanoma [6]; 24 h) was 0,75, the plasma/blood ratio (B16 murine melanoma [6]; 24 h) was 0,77 and the tumor/blood ratio (B16 murine melanoma [6]; 24 h) was 16. The “concentrations and tumor/blood ratios compared with A” value (B16 murine melanoma [6]; 24 hours, melanic melanomas, preliminary) was “lower than those of A”, the “marker of the B16 murine melanoma” value (B16 murine melanoma [6]; mouse, in vivo) was “markers of the B16 murine melanoma” and the tumoral definition (B16 melanoma) was “very good tumoral definition”. The tumoral definition [7] was “very good tumoral definition”.
